Values joined by “and” are separate entries in the source; they are usually repeats but may differ in a detail not shown here. Equal values may be shown once. Read-outs that look alike come from different tables or passages of the source.
Experiments:
insulin receptor [1] = biological target: T1, insulin receptor (Homo sapiens, UniProt P06213); assay: Insulin receptor phosphorylation assay in receptor transfected HEK293 cells; type: cell-based; parameters: expressed in transfected cells; host or cells: HEK293
T1 sequence (P06213 28-758 limits assumed): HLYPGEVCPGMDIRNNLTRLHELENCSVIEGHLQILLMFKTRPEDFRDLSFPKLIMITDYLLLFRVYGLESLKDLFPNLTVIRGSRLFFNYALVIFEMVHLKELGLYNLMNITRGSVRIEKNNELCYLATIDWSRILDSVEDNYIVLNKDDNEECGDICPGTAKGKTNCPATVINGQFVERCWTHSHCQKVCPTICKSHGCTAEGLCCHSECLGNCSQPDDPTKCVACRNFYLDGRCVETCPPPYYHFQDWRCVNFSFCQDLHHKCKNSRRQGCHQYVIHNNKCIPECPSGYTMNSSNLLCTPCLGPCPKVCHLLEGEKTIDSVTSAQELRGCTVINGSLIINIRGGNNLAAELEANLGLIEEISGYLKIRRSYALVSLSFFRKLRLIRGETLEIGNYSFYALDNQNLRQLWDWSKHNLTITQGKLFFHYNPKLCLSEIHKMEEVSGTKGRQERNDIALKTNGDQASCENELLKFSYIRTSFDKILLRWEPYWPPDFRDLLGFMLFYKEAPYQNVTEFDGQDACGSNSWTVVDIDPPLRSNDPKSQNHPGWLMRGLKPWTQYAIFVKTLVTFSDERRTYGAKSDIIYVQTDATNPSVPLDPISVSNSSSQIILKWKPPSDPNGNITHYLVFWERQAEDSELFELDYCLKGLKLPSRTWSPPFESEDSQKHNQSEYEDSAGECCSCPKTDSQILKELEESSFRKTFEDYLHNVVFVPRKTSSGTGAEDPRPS
T1 sequence (P06213 763-1382 partner limits assumed): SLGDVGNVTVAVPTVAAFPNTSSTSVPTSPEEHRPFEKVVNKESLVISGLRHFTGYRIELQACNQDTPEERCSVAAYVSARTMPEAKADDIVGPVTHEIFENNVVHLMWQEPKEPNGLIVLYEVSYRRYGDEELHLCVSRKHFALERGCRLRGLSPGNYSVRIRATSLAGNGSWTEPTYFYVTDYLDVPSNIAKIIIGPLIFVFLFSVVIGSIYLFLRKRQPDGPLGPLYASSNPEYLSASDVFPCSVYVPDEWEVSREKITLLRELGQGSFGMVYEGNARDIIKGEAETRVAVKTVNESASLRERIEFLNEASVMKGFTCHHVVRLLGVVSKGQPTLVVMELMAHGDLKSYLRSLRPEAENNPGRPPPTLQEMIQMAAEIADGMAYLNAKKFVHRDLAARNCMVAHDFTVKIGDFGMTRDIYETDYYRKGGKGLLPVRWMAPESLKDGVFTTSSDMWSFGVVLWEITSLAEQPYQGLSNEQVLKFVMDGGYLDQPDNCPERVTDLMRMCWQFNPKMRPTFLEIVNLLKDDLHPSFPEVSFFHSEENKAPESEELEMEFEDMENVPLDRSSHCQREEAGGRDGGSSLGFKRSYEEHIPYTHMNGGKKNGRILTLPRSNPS

IGF-1 receptor [2] = biological target: T2, IGF-1 receptor (Homo sapiens, UniProt P08069); assay: IGF-1 receptor phosphorylation assay in receptor transfected HEK293 cells; type: cell-based; parameters: expressed in transfected cells; host or cells: HEK293
T2 sequence (P08069 31-736 limits assumed): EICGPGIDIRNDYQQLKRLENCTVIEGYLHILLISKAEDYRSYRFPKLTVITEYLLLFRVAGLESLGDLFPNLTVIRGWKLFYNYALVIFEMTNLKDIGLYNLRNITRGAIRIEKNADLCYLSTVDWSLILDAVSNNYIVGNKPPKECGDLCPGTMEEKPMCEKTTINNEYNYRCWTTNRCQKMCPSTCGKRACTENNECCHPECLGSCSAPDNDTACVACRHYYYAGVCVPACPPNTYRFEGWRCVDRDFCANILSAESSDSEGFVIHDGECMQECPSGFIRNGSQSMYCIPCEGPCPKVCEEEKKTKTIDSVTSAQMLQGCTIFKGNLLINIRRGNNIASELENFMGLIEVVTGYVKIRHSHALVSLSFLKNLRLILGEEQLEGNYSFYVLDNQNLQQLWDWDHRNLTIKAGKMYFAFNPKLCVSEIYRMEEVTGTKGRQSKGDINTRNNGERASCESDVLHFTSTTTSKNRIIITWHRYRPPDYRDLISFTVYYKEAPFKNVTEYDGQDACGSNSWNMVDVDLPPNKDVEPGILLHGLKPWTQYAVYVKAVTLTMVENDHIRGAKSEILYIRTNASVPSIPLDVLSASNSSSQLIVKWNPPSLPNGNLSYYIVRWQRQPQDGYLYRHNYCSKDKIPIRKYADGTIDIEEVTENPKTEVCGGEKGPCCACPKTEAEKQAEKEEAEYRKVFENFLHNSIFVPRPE
T2 sequence (P08069 741-1367 partner limits assumed): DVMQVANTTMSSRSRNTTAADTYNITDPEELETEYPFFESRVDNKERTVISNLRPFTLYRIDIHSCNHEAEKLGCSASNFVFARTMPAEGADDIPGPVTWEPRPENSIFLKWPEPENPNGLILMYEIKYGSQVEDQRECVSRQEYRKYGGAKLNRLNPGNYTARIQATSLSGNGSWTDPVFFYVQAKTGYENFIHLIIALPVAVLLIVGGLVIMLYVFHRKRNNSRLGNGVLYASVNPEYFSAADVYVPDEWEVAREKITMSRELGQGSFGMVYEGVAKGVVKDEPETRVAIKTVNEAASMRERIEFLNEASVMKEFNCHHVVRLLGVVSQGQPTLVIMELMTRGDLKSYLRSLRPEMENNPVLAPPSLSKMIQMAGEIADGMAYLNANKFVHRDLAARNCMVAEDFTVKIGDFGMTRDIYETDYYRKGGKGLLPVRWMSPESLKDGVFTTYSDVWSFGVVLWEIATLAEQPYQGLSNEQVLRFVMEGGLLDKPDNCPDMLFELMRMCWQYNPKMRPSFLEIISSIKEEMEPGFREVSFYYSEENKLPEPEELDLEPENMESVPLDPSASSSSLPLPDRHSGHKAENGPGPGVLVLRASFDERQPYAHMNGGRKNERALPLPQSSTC

insulin receptor [3] = biological target: T1, insulin receptor; assay: Insulin receptor competition binding assay (scintillation proximity); parameters: expressed in transfected cells; plasma membrane fragments
IGF-1 receptor [4] = biological target: T2, IGF-1 receptor; assay: IGF-1 receptor competition binding assay (scintillation proximity); parameters: expressed in transfected cells; plasma membrane fragments
[5] = Table 9, IGF-1 receptor versus insulin receptor

| SMILES | % IGF (IGF-1 receptor [2]; Table 10, IGF-1 Receptor) [%] | % insulin (in test) (insulin receptor [3]; Table 9, Insulin Receptor) | % IGF-1 (in test) (IGF-1 receptor [4]; Table 9, IGF-1 Receptor) | Ratio (IGF-1 receptor [4]; [5]) | % Insulin (insulin receptor [1]; Table 10, Insulin Receptor) | % native insulin activity (0.6 nM) (insulin receptor [3]; Table 9, Insulin Receptor) | other results |
| --- | --- | --- | --- | --- | --- | --- | --- |
| CC[C@H](C)[C@H](NC(=O)CN)C(=O)N[C@H](C(=O)N[C@@H](CC(=O)O)C(=O)N[C@@H](CCC(=O)O)C(=O)N[C@H]1CSSC[C@@H]2NC(=O)[C@H](CO)NC(=O)[C@H](C)NC(=O)[C@H](Cc3c[nH]cn3)NC(=O)[C@H](CSSC[C@H](NC(=O)[C@H](CC(C)C)NC(=O)[C@H](Cc3c[nH]cn3)NC(=O)[C@H](CCC(=O)O)NC(=O)[C@@H]3CCCN3C(=O)CN)C(=O)NCC(=O)N[C@@H](C)C(=O)N[C@@H](CC(=O)O)C(=O)N[C@@H](CC(C)C)C(=O)N[C@@H](C(C)C)C(=O)N[C@@H](CC(=O)O)C(=O)N[C@@H](C)C(=O)N[C@@H](CC(C)C)C(=O)N[C@@H](Cc3ccc(O)cc3)C(=O)N[C@@H](CC(C)C)C(=O)N[C@@H](C(C)C)C(=O)N[C@H](C(=O)NCC(=O)N[C@@H](CC(=O)O)C(=O)N[C@@H](C)C(=O)NCC(=O)N[C@@H](Cc3ccccc3)C(=O)N[C@@H](Cc3ccc(O)cc3)C(N)=O)CSSC[C@@H](C(=O)N[C@@H](CC(N)=O)C(=O)O)NC(=O)[C@H](Cc3ccc(O)cc3)NC(=O)[C@H](CCSC)NC(=O)[C@H](CCC(=O)O)NC(=O)[C@H](CC(C)C)NC(=O)[C@H](CCCNC(=N)N)NC(=O)[C@H](CCCNC(=N)N)NC(=O)[C@H](CC(C)C)NC(=O)[C@H](CC(=O)O)NC2=O)NC1=O)C(C)C | – | – | – | – | – | – | % Insulin (insulin receptor [1]): 360% and 614%; % IGF (IGF-1 receptor [2]): 7.7%; Selective Ratio (IGF-1 receptor [2]): 32.54; % insulin (in test) (insulin receptor [3]): 1171.4%; % IGF-1 (in test) (IGF-1 receptor [4]): 2.3%; Ratio (IGF-1 receptor [4]): 190.3 |
| CC[C@H](C)[C@H](NC(=O)CN)C(=O)N[C@H](C(=O)N[C@@H](CC(=O)O)C(=O)N[C@@H](CCC(=O)O)C(=O)N[C@H]1CSSC[C@@H]2NC(=O)[C@H](CO)NC(=O)[C@H](CCCNC(=N)N)NC(=O)[C@H](Cc3ccccc3)NC(=O)[C@H](CSSC[C@H](NC(=O)[C@H](CC(C)C)NC(=O)[C@H](Cc3c[nH]cn3)NC(=O)[C@H](CCC(=O)O)NC(=O)[C@@H]3CCCN3C(=O)CN)C(=O)NCC(=O)N[C@@H](C)C(=O)N[C@@H](CC(=O)O)C(=O)N[C@@H](CC(C)C)C(=O)N[C@@H](C(C)C)C(=O)N[C@@H](CC(=O)O)C(=O)N[C@@H](C)C(=O)N[C@@H](CC(C)C)C(=O)N[C@@H](Cc3ccc(O)cc3)C(=O)N[C@@H](CC(C)C)C(=O)N[C@@H](C(C)C)C(=O)N[C@H](C(=O)NCC(=O)N[C@@H](CC(=O)O)C(=O)N[C@@H](CCCNC(=N)N)C(=O)NCC(=O)N[C@@H](Cc3ccccc3)C(=O)N[C@@H](Cc3ccc(O)cc3)C(N)=O)CSSC[C@@H](C(=O)N[C@@H](C)C(N)=O)NC(=O)[C@H](Cc3ccc(O)cc3)NC(=O)[C@H](CCSC)NC(=O)[C@H](CCC(=O)O)NC(=O)[C@H](CC(C)C)NC(=O)[C@H](CCCNC(=N)N)NC(=O)[C@H](CCCNC(=N)N)NC(=O)[C@H](CC(C)C)NC(=O)[C@H](CC(=O)O)NC2=O)NC1=O)C(C)C [IGF-1 A:B (H5D10Y16L17) DPI] | 7.1 | 479.0% | 11.2% | 29.1 | – | – | – |
| CC[C@H](C)[C@H](NC(=O)CN)C(=O)N[C@H](C(=O)N[C@@H](CC(=O)O)C(=O)N[C@@H](CCC(=O)O)C(=O)N[C@H]1CSSC[C@@H]2NC(=O)[C@H](CO)NC(=O)[C@H](C)NC(=O)[C@H](Cc3c[nH]cn3)NC(=O)[C@H](CSSC[C@H](NC(=O)[C@H](CC(C)C)NC(=O)[C@H](Cc3c[nH]cn3)NC(=O)[C@H](CCC(=O)O)NC(=O)[C@@H]3CCCN3C(=O)CN)C(=O)NCC(=O)N[C@@H](C)C(=O)N[C@@H](CC(=O)O)C(=O)N[C@@H](CC(C)C)C(=O)N[C@@H](C(C)C)C(=O)N[C@@H](CC(=O)O)C(=O)N[C@@H](C)C(=O)N[C@@H](CC(C)C)C(=O)N[C@@H](Cc3ccc(O)cc3)C(=O)N[C@@H](CC(C)C)C(=O)N[C@@H](C(C)C)C(=O)N[C@H](C(=O)NCC(=O)N[C@@H](CC(=O)O)C(=O)N[C@@H](CCCNC(=N)N)C(=O)NCC(=O)N[C@@H](Cc3ccccc3)C(=O)N[C@@H](Cc3ccc(O)cc3)C(N)=O)CSSC[C@@H](C(=O)N[C@@H](CC(N)=O)C(=O)O)NC(=O)[C@H](Cc3ccc(O)cc3)NC(=O)[C@H](CCSC)NC(=O)[C@H](CCC(=O)O)NC(=O)[C@H](CC(C)C)NC(=O)[C@H](CCCNC(=N)N)NC(=O)[C@H](CCCNC(=N)N)NC(=O)[C@H](CC(C)C)NC(=O)[C@H](CC(=O)O)NC2=O)NC1=O)C(C)C | 181.395 | 1576.7% and 1667.0% | 12.9% | 80.6 | – | – | % Insulin (insulin receptor [1]; Table 10, Insulin Receptor, listed as IGF-1 A (H8 A9 N21) B(H5D10Y16L17) DPI A-COOH): 840% and 1080% |
| CC[C@H](C)[C@H](NC(=O)CN)C(=O)N[C@H](C(=O)N[C@@H](CC(=O)O)C(=O)N[C@@H](CCC(=O)O)C(=O)N[C@H]1CSSC[C@@H]2NC(=O)[C@H](CO)NC(=O)[C@H](CCCNC(=N)N)NC(=O)[C@H](Cc3ccccc3)NC(=O)[C@H](CSSC[C@H](NC(=O)[C@H](CC(C)C)NC(=O)[C@@H](NC(=O)[C@H](CCC(=O)O)NC(=O)[C@@H]3CCCN3C(=O)CN)[C@@H](C)O)C(=O)NCC(=O)N[C@@H](C)C(=O)N[C@@H](CCC(=O)O)C(=O)N[C@@H](CC(C)C)C(=O)N[C@@H](C(C)C)C(=O)N[C@@H](CC(=O)O)C(=O)N[C@@H](C)C(=O)N[C@@H](CC(C)C)C(=O)N[C@@H](Cc3ccc(O)cc3)C(=O)N[C@@H](CC(C)C)C(=O)N[C@@H](C(C)C)C(=O)N[C@H](C(=O)NCC(=O)N[C@@H](CC(=O)O)C(=O)N[C@@H](CCCNC(=N)N)C(=O)NCC(=O)N[C@@H](Cc3ccccc3)C(=O)N[C@@H](Cc3ccc(O)cc3)C(=O)N[C@@H](Cc3ccccc3)C(=O)N[C@@H](CC(N)=O)C(=O)N[C@@H](CCCCN)C(=O)N3CCC[C@H]3C(=O)N[C@H](C(N)=O)[C@@H](C)O)CSSC[C@@H](C(=O)N[C@@H](C)C(N)=O)NC(=O)[C@H](Cc3ccc(O)cc3)NC(=O)[C@H](CCSC)NC(=O)[C@H](CCC(=O)O)NC(=O)[C@H](CC(C)C)NC(=O)[C@H](CCCNC(=N)N)NC(=O)[C@H](CCCNC(=N)N)NC(=O)[C@H](CC(C)C)NC(=O)[C@H](CC(=O)O)NC2=O)NC1=O)C(C)C [IGF-1 A:B(E10Y16L17)] | 13 | 58.7% and 98.8% | 6.8% and 5.0% | 11.9 | 49.2% | 90.9% and 117.6% | IC50 (insulin receptor [3]; IC50:): 0.51 nM; IC80 (IGF-1 receptor [4]; Table 9, IGF-1 Receptor): 12.2 nM |

Further lines, with some results ahead:

| % IGF (IGF-1 receptor [2]; Table 10, IGF-1 Receptor) [%] | % insulin (in test) (insulin receptor [3]; Table 9, Insulin Receptor) | % IGF-1 (in test) (IGF-1 receptor [4]; Table 9, IGF-1 Receptor) | Ratio (IGF-1 receptor [4]; [5]) | % Insulin (insulin receptor [1]; Table 10, Insulin Receptor) | SMILES | % native insulin activity (0.6 nM) (insulin receptor [3]; Table 9, Insulin Receptor) | other results |
| --- | --- | --- | --- | --- | --- | --- | --- |
| – | 36.5% | 3.0% | 14.3 | 18.1% and 31.7% | CC[C@H](C)[C@H](NC(=O)CN)C(=O)N[C@H](C(=O)N[C@@H](CC(=O)O)C(=O)N[C@@H](CCC(=O)O)C(=O)N[C@H]1CSSC[C@@H]2NC(=O)[C@H](CO)NC(=O)[C@H](CCCNC(=N)N)NC(=O)[C@H](Cc3ccccc3)NC(=O)[C@H](CSSC[C@H](NC(=O)[C@H](CC(C)C)NC(=O)[C@@H](NC(=O)[C@H](CCC(=O)O)NC(=O)[C@@H]3CCCN3C(=O)CN)[C@@H](C)O)C(=O)NCC(=O)N[C@@H](C)C(=O)N[C@@H](CCC(=O)O)C(=O)N[C@@H](CC(C)C)C(=O)N[C@@H](C(C)C)C(=O)N[C@@H](CC(=O)O)C(=O)N[C@@H](C)C(=O)N[C@@H](CC(C)C)C(=O)N[C@@H](Cc3ccc(O)cc3)C(=O)N[C@@H](CC(C)C)C(=O)N[C@@H](C(C)C)C(=O)N[C@H](C(=O)NCC(=O)N[C@@H](CC(=O)O)C(=O)N[C@@H](CCCNC(=N)N)C(=O)NCC(=O)N[C@@H](Cc3ccccc3)C(=O)N[C@@H](Cc3ccc(O)cc3)C(=O)N[C@@H](Cc3ccccc3)C(=O)N[C@@H](CC(N)=O)C(=O)N[C@@H](CCCCN)C(=O)N3CCC[C@H]3C(=O)N[C@H](C(=O)N[C@@H](CCC(=O)O)C(=O)N[C@@H](CCC(=O)O)C(=O)O)[C@@H](C)O)CSSC[C@@H](C(=O)N[C@@H](C)C(N)=O)NC(=O)[C@H](Cc3ccc(O)cc3)NC(=O)[C@H](CCSC)NC(=O)[C@H](CCC(=O)O)NC(=O)[C@H](CC(C)C)NC(=O)[C@H](CCCNC(=N)N)NC(=O)[C@H](CCCNC(=N)N)NC(=O)[C@H](CC(C)C)NC(=O)[C@H](CC(=O)O)NC2=O)NC1=O)C(C)C [IGF-1 A:B(E10 Y16L17)-E31E3 2B-COOH] | 50.0% | – |
| 111.538 | – | 7.7% | – | 1575% | CC[C@H](C)[C@H](NC(=O)CN)C(=O)N[C@H](C(=O)N[C@@H](CC(=O)O)C(=O)N[C@@H](CCC(=O)O)C(=O)N[C@H]1CSSC[C@@H]2NC(=O)[C@H](CO)NC(=O)[C@H](CCCNC(=N)N)NC(=O)[C@H](Cc3ccccc3)NC(=O)[C@H](CSSC[C@H](NC(=O)[C@H](CC(C)C)NC(=O)[C@@H](NC(=O)[C@H](CCC(=O)O)NC(=O)[C@@H]3CCCN3C(=O)CN)[C@@H](C)O)C(=O)NCC(=O)N[C@@H](C)C(=O)N[C@@H](CC(=O)O)C(=O)N[C@@H](CC(C)C)C(=O)N[C@@H](C(C)C)C(=O)N[C@@H](CC(=O)O)C(=O)N[C@@H](C)C(=O)N[C@@H](CC(C)C)C(=O)N[C@@H](Cc3ccc(O)cc3)C(=O)N[C@@H](CC(C)C)C(=O)N[C@@H](C(C)C)C(=O)N[C@H](C(=O)NCC(=O)N[C@@H](CC(=O)O)C(=O)N[C@@H](CCCNC(=N)N)C(=O)NCC(=O)N[C@@H](Cc3ccccc3)C(=O)N[C@@H](Cc3ccc(O)cc3)C(N)=O)CSSC[C@@H](C(=O)N[C@@H](C)C(=O)O)NC(=O)[C@H](Cc3ccc(O)cc3)NC(=O)[C@H](CCSC)NC(=O)[C@H](CCC(=O)O)NC(=O)[C@H](CC(C)C)NC(=O)[C@H](CCCNC(=N)N)NC(=O)[C@H](CCCNC(=N)N)NC(=O)[C@H](CC(C)C)NC(=O)[C@H](CC(=O)O)NC2=O)NC1=O)C(C)C [IGF-1 A:B(D10Y16L17) DPI A-COOH] | – | – |
